From patent US20240165281A1, “DUAL MODE RADIOTRACER AND THERAPEUTICS” (Technische Universität München, priority 2021, published 2024)

Assays:
LNCaP cells = experiment: Internalization studies in LNCaP cells; assay type: cell-based; settings: 37° C., 60 min, normalized to ([125I]I-BA)KuE
Protocol: PSMA-positive LNCAP cells (300265; Cell Lines Service, Eppelheim, Germany) were cultivated in Dulbecco modified Eagle medium/Nutrition Mixture F-12 with Glutamax (1:1) (DMEM-F12, Biochrom, Berlin, Germany) supplemented with fetal bovine serum (10%, FBS Zellkultur, Berlin, Germany) and kept at 37° C. in a humidified CO2 atmosphere (5%). A mixture of trypsin and EDTA (0.05%, 0.02%) in PBS (Biochrom) was used in order to harvest cells. Cells were counted with a Neubauer hemocytometer (Paul Marienfeld, Lauda-Königshofen, Germany).
For internalization studies, LNCaP cells were harvested 24±2 hours before the experiment and seeded in poly-L-lysine coated 24-well plates (1.25×10^5 cells in 1 mL/well, Greiner Bio-One, Kremsmünster, Austria). After removal of the culture medium, the cells were washed once with 500 μL DMEM-F12 (5% BSA) and left to equilibrate for at least 15 min at 37° C. in […] DMEM-F12 (5% BSA). Each well was treated with either 25 μL of either DMEM-F12 (5% BSA, control) or 25 μL of a 100 μM PMPA (2-(Phosphonomethyl)-pentandioic acid, Tocris Bioscience, Bristol, UK) solution in PBS, for blockade. Next, 25 μL of the radioactive-labelled PSMA inhibitor (10.0 nM in DMEM-F12 (5% BSA)) was added and the cells were incubated at 37° C. for 60 min. The experiment was terminated by placing the 24-well plate on ice for 3 min and consecutive removal of the medium. Each well was carefully washed with 250 μL of ice-cold HBSS. Both fractions from the first steps, representing the amount of free radioligand, were combined. Removal of surface bound activity was accomplished by incubation of the cells with 250 μL of ice-cold PMPA (10 μM in PBS) solution for 5 min and rinsed again with another 250 μL of ice-cold PBS. The internalized activity was determined by incubation of the cells in 250 μL […] aqueous NaOH for at least 10 min. The obtained fractions were combined with those of the subsequent wash step with 250 μL 1 M aqueous NaOH. Each experiment (control and blockade) was performed in triplicate. Free, surface bound and internalized activity was quantified in a y-counter. All internalization studies were accompanied by external reference studies, using ([^125I]I-BA)KuE (c=0.2 nM), which were performed analogously. Data were corrected for non-specific binding and normalized to the specific-internalization observed for the radioiodinated reference compound.

[1] = Octanol-water partition coefficient (log D7.4); assay type: physicochemical; settings: PBS pH 7.4 / n-octanol, 177Lu-labelled
Protocol: Octanol-Water Partition Coefficient (log D7.4)
Approximately 1 MBq of the labelled tracer was dissolved in 1 mL of a 1:1 mixture (v/v) of PBS (pH 7.4) and n-octanol in a reaction vial (1.5 mL). After vigorous mixing of the suspension for 3 minutes at room temperature, the vial was centrifuged at 15000 g for 3 minutes (Biofuge 15, Heraus Sepatech, Osterode, Germany) and 100 μL aliquots of both layers were measured in a gamma counter. The experiment was repeated at least six times.

[2] = biological target: T1, Human Serum Albumin (HSA) (Homo sapiens, UniProt P02768); experiment: Human serum albumin (HSA) binding by high performance affinity chromatography (HPAC); assay type: in vitro ADME; settings: Chiralpak HSA column
T1 construct: purchased Daicel H13H-2433
Protocol: Determination of Human Serum Albumin (HSA) Binding by High Performance Affinity Chromatography (HPAC)
HSA binding of the PSMA-addressing ligands was determined according to a previously published procedure via HPLC (Valko, K.; Nunhuck, S.; Bevan, C.; Abraham, M. H.; Reynolds, D. P. Journal of pharmaceutical sciences 2003, 92, 2236-2248). A Chiralpak HSA column (50×3 mm, 5 μm, H13H-2433, Daicel, Tokyo, Japan) was used at a constant flow rate of 0.5 mL/min at rt. Mobile phase A was a freshly prepared 50 mM aqueous solution of NH4OAc (pH 6.9) and mobile phase B was isopropanol (HPLC grade, VWR). The applied gradient for all experiments was 100% A (0 to 3 min), followed by 80% A (3 to 40 min). Prior to the experiment, the column was calibrated using nine reference substances with a HSA binding, known from literature, in the range of 13 to 99% (Valko, K.; Nunhuck, S.; Bevan, C.; Abraham, M. H.; Reynolds, D. P. Journal of pharmaceutical sciences 2003, 92, 2236-2248; Yamazaki, K.; Kanaoka, M. Journal of Pharmaceutical sciences 2004, 93, 1480-1494). All substances, including the examined PSMA ligands, were dissolved in a 1:1 mixture (v/v) of isopropanol and a 50 mM aqueous solution of NH4OAc (pH6.9) with a final concentration of 0.5 mg/mL. Non-linear regression was established with the OriginPro 2016G software (Northampton, United States) (FIG. 8).

[3] = Apparent molecular weight (MWapp)
[4] = system: LNCaP tumor-bearing male CB-17 SCID mice; experiment: Biodistribution studies 24 h p.i.; settings: Table 1
Protocol: Approximately 3-7 MBq (0.1-0.2 nmol) of the radioactive-labelled PSMA inhibitors were injected into the tail vein of LNCaP tumor-bearing male CB-17 SCID mice and sacrificed after 24 h post injection. Selected organs were removed, weighted and measured in a γ-counter. Results are all decay corrected and given in % injected dose per gram of tissue (% iD/g). Tumor-to-organ ratios are calculated from animals' individual ratios and are given as mean±standard deviation.

PSMA = biological target: T2, PSMA (Homo sapiens, UniProt Q04609); experiment: PSMA affinity (IC50), competition with [125I]I-BA-KuE on LNCaP cells; assay type: binding; settings: natLu complex, on ice 60 min, read-out: IC50
T2 construct: PSMA-positive LNCAP cells (300265; Cell Lines Service, Eppelheim, Germany); host or cells: LNCaP cells
Protocol: A mixture of trypsin and EDTA (0.05%, 0.02%) in PBS (Biochrom) was used in order to harvest cells. Cells were counted with a Neubauer hemocytometer (Paul Marienfeld, Lauda-Königshofen, Germany).
Affinity Determinations (IC50)
In the case of metal-complexed ligands, the crude reaction mixture was diluted analogously, without further purification. Cells were harvested 24±2 hours prior to the experiment and seeded in 24-well plates (1.5×10^5 cells in 1 mL/well). […] The media of both steps were combined in one fraction and represent the amount of free radioligand. Afterwards, the cells were lysed with 250 μL of 1 M aqueous NaOH for at least 10 min. After a washing step (250 μL of 1 M NaOH), both fractions, representing the amount of bound ligand, were united. Quantification of all collected fractions was accomplished in a γ-counter. PSMA-affinity determinations were carried out at least three times per ligand.

[5] = Wängler et al. 2010; cited from earlier work

T2 sequence (Q04609 whole entry): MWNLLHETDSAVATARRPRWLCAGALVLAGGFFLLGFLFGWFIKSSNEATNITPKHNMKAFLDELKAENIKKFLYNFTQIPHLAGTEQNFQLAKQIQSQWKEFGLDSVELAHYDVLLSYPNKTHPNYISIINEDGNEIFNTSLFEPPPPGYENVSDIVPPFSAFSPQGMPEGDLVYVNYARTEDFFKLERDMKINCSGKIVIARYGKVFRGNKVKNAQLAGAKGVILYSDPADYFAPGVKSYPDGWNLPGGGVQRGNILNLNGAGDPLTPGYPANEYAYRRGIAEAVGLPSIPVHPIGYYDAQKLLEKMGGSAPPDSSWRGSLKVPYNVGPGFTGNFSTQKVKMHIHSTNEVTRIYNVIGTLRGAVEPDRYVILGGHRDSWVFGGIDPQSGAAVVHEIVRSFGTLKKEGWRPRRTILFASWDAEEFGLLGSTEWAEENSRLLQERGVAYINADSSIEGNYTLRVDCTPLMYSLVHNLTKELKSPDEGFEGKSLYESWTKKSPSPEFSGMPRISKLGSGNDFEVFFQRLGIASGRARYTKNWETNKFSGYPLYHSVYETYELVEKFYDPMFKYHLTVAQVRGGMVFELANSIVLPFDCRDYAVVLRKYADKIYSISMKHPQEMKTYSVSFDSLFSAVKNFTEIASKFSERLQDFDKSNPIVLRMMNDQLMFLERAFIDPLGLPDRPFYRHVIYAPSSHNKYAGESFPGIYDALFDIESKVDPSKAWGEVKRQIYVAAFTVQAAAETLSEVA
T1 sequence (P02768 25-609): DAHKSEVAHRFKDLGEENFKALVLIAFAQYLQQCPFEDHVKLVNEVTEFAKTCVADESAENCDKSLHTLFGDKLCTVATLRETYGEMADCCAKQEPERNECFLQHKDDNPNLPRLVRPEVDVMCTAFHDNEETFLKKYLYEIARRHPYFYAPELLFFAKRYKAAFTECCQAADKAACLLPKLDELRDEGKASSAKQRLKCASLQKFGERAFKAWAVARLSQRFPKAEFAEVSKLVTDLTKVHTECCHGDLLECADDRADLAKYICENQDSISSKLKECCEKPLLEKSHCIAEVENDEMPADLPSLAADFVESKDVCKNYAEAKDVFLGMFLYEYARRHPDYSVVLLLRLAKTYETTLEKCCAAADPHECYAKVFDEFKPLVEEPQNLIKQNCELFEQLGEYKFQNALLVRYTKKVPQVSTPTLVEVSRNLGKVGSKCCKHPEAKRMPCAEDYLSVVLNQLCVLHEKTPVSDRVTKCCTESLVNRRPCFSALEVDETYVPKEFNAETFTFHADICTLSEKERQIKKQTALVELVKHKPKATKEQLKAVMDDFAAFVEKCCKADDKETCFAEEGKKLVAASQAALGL

Row | Compound | Internalization (LNCaP cells) | logD7.4 [1] | HSA (HPAC) [2] | MWapp [3] | Kidneys (24 h) [4] | Tumor (24 h) [4] | T/K-ratio ([4]; tumor/kidney) | IC50 (PSMA) | log P(ow) [5]
1 | CC(C)(C)[Si](F)(c1ccc(C(=O)NC[C@@H](NC(=O)CC[C@@H](C(=O)O)N2CCN(CC(=O)O)CCN(CC(=O)O)CCN(CC(=O)O)CC2)C(=O)N[C@H](CCCCNC(=O)CCC(=O)NCCC[C@@H](NC(=O)CC[C@H](NC(=O)N[C@@H](CCC(=O)O)C(=O)O)C(=O)O)C(=O)O)C(=O)O)cc1)C(C)(C)C [rhPSMA-7.3, reference compound] | 184 ± 12 % IBA-KuE | −4.12 ± 0.11^ | 98.6% | 30.4 kDa | 1.4 ± 0.4 % iD/g | 7.5 ± 0.9 % iD/g | 5.17 | 3.29 ± 1 nM | 
2 | SIFA-Asn(AcNH-β-Glc)-PEG-Tyr^3 -octreotate |  |  |  |  |  |  |  |  | 0.96
3 | SIFA-Asn(AcNH-β-Glc)-Tyr^3 -octreotate |  |  |  |  |  |  |  |  | 1.23
